{
  "source": "patent US20240226083A9",
  "about": "“MEDICAMENT FOR TREATMENT AND/OR PROPHYLACTIC TREATMENT OF CANCERS” (Belina Pharma AB, priority 2019, published 2024)",
  "key": {"[1]": {"tested_on": "patients with gastric cancer", "assay": "Swedish nation-wide register study, cancer specific survival of antihistamine users vs non-users: gastric cancer", "type": "in vivo, human", "details": "for effect of use on gastric cancer survival: users vs non-users, in words", "protocol": "(§1) Both peri- and post-diagnostic antihistamine use was analyzed, using Cox regression models, as well as different subgroups of patients with regard to age, gender (as a proxy for sex) and tumor status.\n(§2) Material and methods Linking the Cancer Registry with the Drug Prescription Registry and Cause of Death Registry the survival of over 500 000 cancer patients with cancer in the breast-, prostate, ventrikel, pancreas, kidney, colo-rectal, lung, uterus, ovary, brain, melanoma, lymph gland and bone marrow was studied between 2005-2014.\n(§3) Use of the six major antihistamines was established using the Swedish Prescribed Drug Register, a record of all dispensed prescribed pharmaceuticals in Sweden since July 1st 2005. To be included in the registry at least 2 weeks of prescription is required. Prescription free antihistamine use, non-dispensed doses, or use of other, less common, types of antihistamines is here considered non-use. Causes of death were obtained from the Swedish Cause of Death Register, a database where all deaths have been recorded since 1952. Data was pseudo-anonymized and the study was approved by the Regional Ethics Board.\n(§4) We analyzed both the peri- and cumulative post-diagnostic use of antihistamines among […]. Peri-diagnostic use was a proxy for ever-use, and is here defined as use within six months pre-diagnosis and six months post-diagnosis, where the main antihistamine (in terms of dispensed defined daily doses, or DDDs) used by each individual during this time was identified. The analysis was done using a Cox regression model with time to even or censoring in years as a time scale. Subgroup analyses were made for groups based on age and gender (as a proxy for sex).\n(§5) For the cumulative post-diagnostic antihistamine use analysis, mortality rates for antihistamine users were compared to those of non-users through a Cox regression model allowing for time varying covariates, and survival time was measured in years since diagnosis. […] The impact of the cumulative DDDs was assessed after log transformation of the DDDs plus one3. […]"}, "[2]": {"tested_on": "patients with pancreatic cancer", "assay": "Swedish nation-wide register study, cancer specific survival of antihistamine users vs non-users: pancreatic cancer", "type": "in vivo, human", "details": "for effect of use on pancreatic cancer survival: users vs non-users, in words", "protocol": "as §1, §2, §3, §4, §5"}, "[3]": {"tested_on": "patients with ovarian cancer", "assay": "Swedish nation-wide register study, cancer specific survival of antihistamine users vs non-users: ovarian cancer", "type": "in vivo, human", "details": "for effect of use on ovarian cancer survival: users vs non-users, in words", "protocol": "as §1, §2, §3, §4\n(§6) For the cumulative post-diagnostic antihistamine use analysis, mortality rates for antihistamine users were compared to those of non-users through a Cox regression model allowing for time varying covariates, and survival time was measured in years since diagnosis. This allowed for a single individual to provide data as both a non-user and user of different antihistamines. The impact of the cumulative DDDs was assessed after log transformation of the DDDs plus one3. Cox regression analyses were stratified for patient age at diagnosis, tumor size and node status (T and N status, respectively). A lag-time analysis was performed as described by Tamim et al. and Richardson et al. Statistical analyses were performed using R version XXX6.\n(§7) Information on stage, socio-economic factors, tumour therapies, and prognostic tumour factors are not present in the national registries.\n(§8) The confidence interval (95% CI) indicates the level of uncertainty around the measure of effect. A 95% confidence interval means that the confidence interval covers the true value in 95 of 100 studies performed. […]"}, "all tumour types": {"tested_on": "all tumour types", "assay": "Swedish nation-wide register study, cancer specific survival of antihistamine users vs non-users: across tumour types", "type": "in vivo, human", "details": "for effect of use on survival, all tumour types: users vs non-users, in words", "protocol": "as §1, §2, §3, §4, §6, §7, §8"}, "breast cancer [4]": {"tested_on": "breast cancer", "details": "earlier filing, in words; cited from earlier work"}, "breast cancer [5]": {"tested_on": "breast cancer", "assay": "Swedish nation-wide register study, cancer specific survival of antihistamine users vs non-users: breast cancer", "type": "in vivo, human", "details": "in words", "protocol": "as §1, §2\nUse of the six major antihistamines was established using the Swedish Prescribed Drug Register, a record of all dispensed prescribed pharmaceuticals in Sweden since July 1st 2005. To be included in the registry at least 2 weeks of prescription is required. […] Causes of death were obtained from the Swedish Cause of Death Register, a database where all deaths have been recorded since 1952. […]\nWe analyzed both the peri- and cumulative post-diagnostic use of antihistamines among melanoma patients. […]\nas §5"}, "[6]": {"tested_on": "patients with lung cancer", "assay": "Swedish nation-wide register study, cancer specific survival of antihistamine users vs non-users: lung cancer", "type": "in vivo, human"}, "[7]": {"tested_on": "patients with prostate cancer", "assay": "Swedish nation-wide register study, cancer specific survival of antihistamine users vs non-users: prostate cancer", "type": "in vivo, human", "details": "in words", "method": "(§9) For the cumulative post-diagnostic antihistamine use analysis, mortality rates for antihistamine users were compared to those of non-users through a Cox regression model allowing for time varying covariates, and survival time was measured in years since diagnosis. This allowed for a single individual to provide data as both a non-user and user of different antihistamines. The impact of the cumulative DDDs was assessed after log transformation of the DDDs plus one3. Cox regression analyses were stratified for patient age at diagnosis, tumor size and node status (T and N status, respectively). […]"}, "[8]": {"tested_on": "patients with Hodgkin's disease", "assay": "Swedish nation-wide register study, cancer specific survival of antihistamine users vs non-users: Hodgkin's disease", "type": "in vivo, human"}, "[9]": {"tested_on": "patients with brain cancer", "assay": "Swedish nation-wide register study, cancer specific survival of antihistamine users vs non-users: brain cancer", "type": "in vivo, human", "details": "in words"}, "[10]": {"tested_on": "patients with uterus cancer", "assay": "Swedish nation-wide register study, cancer specific survival of antihistamine users vs non-users: uterine cancer", "type": "in vivo, human", "details": "in words"}, "[11]": {"tested_on": "patients with colo-rectal cancer", "assay": "Swedish nation-wide register study, cancer specific survival of antihistamine users vs non-users: colorectal cancer", "type": "in vivo, human"}, "[12]": {"tested_on": "lympho-hematopoetic malignancies", "assay": "Swedish nation-wide register study, cancer specific survival of antihistamine users vs non-users: lympho-hematopoetic malignancies", "type": "in vivo, human", "details": "in words", "method": "as §9"}},
  "data": [
    {"compound": "O=C(O)COCCN1CCN(C(c2ccccc2)c2ccc(Cl)cc2)CC1", "note": "(stereo not shown) [Ceterizine, cetirizine]", "values": [
      {"measurement": "effect of use on gastric cancer survival", "setting": "[1]", "value": "better survival"},
      {"measurement": "effect of use on pancreatic cancer survival", "setting": "[2]", "value": "better survival"},
      {"measurement": "effect of use on ovarian cancer survival", "setting": "[3]", "value": "better survival"}
    ]},
    {"compound": "CN1CCC[C@@H]1CCO[C@](C)(c1ccccc1)c1ccc(Cl)cc1", "note": "[Clemastine, clemastine]", "values": [
      {"measurement": "effect of use on survival, all tumour types", "setting": "all tumour types", "value": "consistently showed a worse survival"}
    ]},
    {"compound": "CC(C)(C)c1ccc(C(=O)CCCN2CCC(OC(c3ccccc3)c3ccccc3)CC2)cc1", "note": "[Ebastine, ebastine]", "values": [
      {"measurement": "effect on breast cancer survival (WO 2016/116438)", "setting": "breast cancer [4]", "value": "positive effect"},
      {"measurement": "effect of use on breast cancer survival", "setting": "breast cancer [5]", "value": "increased breast cancer survival"}
    ]},
    {"compound": "Clc1ccc2c(c1)CCc1cccnc1C2=C1CCNCC1", "note": "[desloratadine]", "values": [
      {"measurement": "5 year survival chance increased by (gastric cancer)", "setting": "[1]; gastric cancer, baseline 5 year survival 25% 2016, FIG. 1", "value": 30, "unit": "%"},
      {"measurement": "effect of use on gastric cancer survival", "setting": "[1]", "value": "consistently beneficial effect"},
      {"measurement": "5 year survival chance increased by (lung cancer)", "setting": "[6]; lung cancer, baseline 5 year survival about 20% 2016, FIG. 1", "value": 15, "unit": "%"},
      {"measurement": "effect of use on lung cancer survival", "setting": "[6]; users vs non-users, in words", "value": "consistently beneficial effect"},
      {"measurement": "effect on breast cancer survival (WO 2016/116438)", "setting": "breast cancer [4]", "value": "positive effect"},
      {"measurement": "effect of use on prostate cancer survival", "setting": "[7]", "value": "consistently beneficial effect"},
      {"measurement": "5 year survival chance increased by (pancreatic cancer)", "setting": "[2]; pancreatic cancer, baseline 5 year survival about 8% 2016, FIG. 1", "value": 35, "unit": "%"},
      {"measurement": "effect of use on pancreatic cancer survival", "setting": "[2]", "value": "consistently beneficial effect"},
      {"measurement": "curative effect suggested by survival curves", "setting": "all tumour types; said cancers, survival curves with follow up parallel to non-treated, FIGS. 7 to 18", "value": "10-20%"},
      {"measurement": "effect of use on breast cancer survival", "setting": "breast cancer [5]", "value": "consistently beneficial effect"},
      {"measurement": "5 year survival chance increased by (Hodgkin's disease)", "setting": "[8]; Hodgkin's disease, baseline 5 year survival about 86% 2016, FIG. 1", "value": 17, "unit": "%"},
      {"measurement": "effect of use on Hodgkin's disease survival", "setting": "[8]; users vs non-users, in words", "value": "strong survival benefit"},
      {"measurement": "effect of use on brain cancer survival", "setting": "[9]", "value": "no effect"},
      {"measurement": "effect of use on uterine cancer survival", "setting": "[10]", "value": "no effect"},
      {"measurement": "5 year survival chance increased by (colorectal cancer)", "setting": "[11]; colorectal cancer, baseline 5 year survival about 65% 2016, FIG. 1", "value": 15, "unit": "%"},
      {"measurement": "effect of use on colorectal cancer survival", "setting": "[11]; users vs non-users, in words", "value": "consistently beneficial effect"},
      {"measurement": "effect of use on survival in lympho-hematopoetic malignancies", "setting": "[12]", "value": "no effect"},
      {"measurement": "5 year survival chance increased by (ovarian cancer)", "setting": "[3]; ovarian cancer, baseline 5 year survival about 55% 2016, FIG. 1", "value": 17, "unit": "%"},
      {"measurement": "effect of use on ovarian cancer survival", "setting": "[3]", "value": "consistently beneficial effect"}
    ]},
    {"compound": "CC(C)(C(=O)O)c1ccc(C(O)CCCN2CCC(C(O)(c3ccccc3)c3ccccc3)CC2)cc1", "note": "(stereo not shown) [fexofenadine]", "values": [
      {"measurement": "effect of use on survival, all tumour types", "setting": "all tumour types", "value": "insignificant"}
    ]},
    {"compound": "CCOC(=O)N1CCC(=C2c3ccc(Cl)cc3CCc3cccnc32)CC1", "note": "[loratadine]", "values": [
      {"measurement": "course of survival curves relative to non-users", "setting": "all tumour types; FIGS. 7 to 18, in words", "value": "most survival curves became parallel to non-users suggesting a long time curative effect"},
      {"measurement": "effect of use on ovarian cancer survival", "setting": "[3]", "value": "survival was better"}
    ]}
  ]
}
